These results are taken from patent publication EP4722219A1 (Gan & Lee Pharmaceuticals Co., Ltd., priority 2023, dated 2024).

The structures appear in SMILES notation.

Type in all cases: cell-based
In one assay the test system is T-47D cells. Briefly: Inhibition of cell proliferation in T-47D cells (CCK-8). The following applies: Homo sapiens, T47D, 144 h, 6 days treatment, CCK-8 cell viability. The gist of the method: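 Viability by CCK-8 after a 6-day, 37 °C/5% CO2 exposure of T-47D cells (3,000/well, RPMI-1640 + 10% FBS) to graded PROTAC concentrations. Inhibition rates gave the IC50.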

The next assay concerns MCF-7 cells. The assay is described as follows: Inhibition of cell proliferation in MCF-7 cells (CCK-8). The following applies: Homo sapiens, MCF7, 144 h, MCF-7 cell proliferation, 6 days treatment. Summed up: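 IC50 from CCK-8 viability-based inhibition after 6-day treatment of MCF-7 cells (800 cells/well, 10% FBS DMEM, 37 °C, 5% CO2) with serially varied compound concentrations.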

Assay [1] concerns the target T1, ERα (Homo sapiens, UniProt P03372).
T1 sequence (P03372 1-595): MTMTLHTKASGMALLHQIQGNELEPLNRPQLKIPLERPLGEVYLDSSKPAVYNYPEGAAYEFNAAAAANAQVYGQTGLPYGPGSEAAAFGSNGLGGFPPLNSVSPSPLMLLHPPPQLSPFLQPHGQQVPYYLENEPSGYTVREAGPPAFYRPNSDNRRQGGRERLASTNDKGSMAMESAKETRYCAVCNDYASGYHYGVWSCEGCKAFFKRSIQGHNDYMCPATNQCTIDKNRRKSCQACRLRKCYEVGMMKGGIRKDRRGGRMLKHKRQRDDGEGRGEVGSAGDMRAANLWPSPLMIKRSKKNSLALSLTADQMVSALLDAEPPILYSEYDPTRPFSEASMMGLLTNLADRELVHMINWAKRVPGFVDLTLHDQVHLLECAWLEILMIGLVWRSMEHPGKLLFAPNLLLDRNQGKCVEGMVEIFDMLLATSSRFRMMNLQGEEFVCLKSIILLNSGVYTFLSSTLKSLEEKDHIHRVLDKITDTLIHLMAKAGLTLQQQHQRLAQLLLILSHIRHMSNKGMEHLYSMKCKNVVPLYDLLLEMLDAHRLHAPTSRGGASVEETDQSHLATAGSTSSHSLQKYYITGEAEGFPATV
The assay is described as follows: ERα degradation in T-47D cells (Western blot). The following applies: 4 hours. Summed up: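 ERα was quantified by immunoblot of RIPA lysates (20 µg total protein), normalised to an internal reference band, and degradation was expressed against control. Lysates came from T-47D cells plated at 3×10^5 cells/well and dosed 4 hours at 37°C with compound at 0.15-1000 nM final concentration.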
A general note: A western blot detects proteins with antibodies after separation by electrophoresis.

Assay [2] addresses T1, ERα. Briefly: ERα degradation in MCF-7 cells (Western blot). Also on record: host or cells: MCF-7. The following applies: 4 hours. Summed up: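 ERα degradation was quantified by immunoblot densitometry, ERα signal divided by internal-reference signal and compared with control. Compounds were applied to MCF-7 cells for 4 hours at final concentrations of 0.15–1000 nM, with 20 µg total protein loaded per lane.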

In the case of `CN(c1ccc2c(c1)OCC21CCN(C[C@H]2CC[C@@H](OC3CCN(c4ccc([C@@H]5c6ccc(O)cc6CC[C@@H]5c5ccccc5)cc4)CC3)CC2)CC1)C1CCC(=O)NC1=O` (stereo partly drawn) [ER-P-32, 3-((1'-(((1S,4s)-4-((1-(4-((1R,2S)-6-hydroxy-2-phenyl-1,2,3,4-tetrahydronaphthalen-1-yl)phenyl)piperidin-4-yl)oxy)cyclohexyl)methyl)-2H-spiro[benzofuran-3,4'-piperidin]-6-yl)(methyl)amino)piperidine-2,6-dione], the IC50 in the assay on T-47D cells was 0.0195 µM; with MCF-7 cells, 0.705 µM. In addition, the figures for the “Degradation rate of ERα in T-47D cells (%)” value at ERα [1] (1nM) and on ERα [1] (10nM) were -2% and 15%, respectively. Further, the results for the “Degradation rate of ERα in MCF-7 cells (%)” value on ERα [2] (1nM) and on ERα [2] (10nM) were 12% and 13%, respectively.

`O=C1CCC(Nc2ccc3c(c2)OC2(CC3)CN(C[C@H]3CC[C@@H](OC4CCN(c5ccc([C@@H]6c7ccc(O)cc7CC[C@@H]6c6ccccc6)cc5)CC4)CC3)C2)C(=O)N1` (stereo partly drawn) [ER-P-33, 3-((1-(((1S,4s)-4-((1-(4-((1R,2S)-6-hydroxy-2-phenyl-1,2,3,4-tetrahydronaphthalen-1-yl)phenyl)piperidin-4-yl)oxy)cyclohexyl)methyl)spiro[azetidine-3,2'-chroman]-7'-yl)amino)piperidine-2,6-dione]: the IC50 stood at 0.0155 µM with T-47D cells and 2.33 µM with MCF-7 cells. Moreover, the “Degradation rate of ERα in T-47D cells (%)” value on ERα [1] (1nM) was -16%; on ERα [1] (10nM), 32%. Further, the “Degradation rate of ERα in MCF-7 cells (%)” value is reported as -5% at ERα [2] (1nM) and -9% at ERα [2] (10nM).

Regarding `O=C1CCC(Nc2ccc3c(c2)COC[C@H]2CN(C[C@H]4CC[C@@H](OC5CCN(c6ccc([C@@H]7c8ccc(O)cc8CC[C@@H]7c7ccccc7)cc6)CC5)CC4)CCN32)C(=O)N1` (stereo partly drawn) [ER-P-34, 3-(((R)-3-(((1S,4S)-4-((1-(4-((1R,2S)-6-hydroxy-2-phenyl-1,2,3,4-tetrahydronaphthalen-1-yl)phenyl)piperidin-4-yl)oxy)cyclohexyl)methyl)-1,2,3,4,4a,5-hexahydro-7H-benzo[e]pyrazino[2,1-c][1,4]oxazepin-9-yl)amino)piperidine-2,6-dione], the results for the IC50 with T-47D cells and in the assay on MCF-7 cells were 0.0269 µM and 2.12 µM, respectively. The figures for the “Degradation rate of ERα in T-47D cells (%)” value on ERα [1] (1nM) and on ERα [1] (10nM) were 15% and 24%, respectively. Besides, the “Degradation rate of ERα in MCF-7 cells (%)” value at ERα [2] (1nM) is listed as 5%; at ERα [2] (10nM) it was 17%.

Regarding `O=C1CCC(Nc2ccc3c(c2)OC[C@@H]2CN(C4CC5(CCN(c6ccc([C@@H]7c8ccc(O)cc8CC[C@@H]7c7ccccc7)cc6)CC5)C4)CCN32)C(=O)N1` (stereo partly drawn) [ER-P-35], the results for the IC50 in the assay with T-47D cells and with MCF-7 cells were 0.0227 µM and 0.876 µM, respectively. The “Degradation rate of ERα in T-47D cells (%)” value on ERα [1] (1nM) and on ERα [1] (10nM) was 21% in each case. Also, the “Degradation rate of ERα in MCF-7 cells (%)” value on ERα [2] (1nM) is 6%; at ERα [2] (10nM) it was -3%.

As for `O=C1CCC(Nc2ccc3c(c2)OC[C@@H]2CN(C4CCC5(CC4)CN(c4ccc([C@@H]6c7ccc(O)cc7CC[C@@H]6c6ccccc6)cc4)C5)CCN32)C(=O)N1` (stereo partly drawn) [ER-P-36, 3-(((S)-3-(2-(4-((1R,2S)-6-hydroxy-2-phenyl-1,2,3,4-tetrahydronaphthalen-1-yl)phenyl)-2-azaspiro[3.5]nonan-7-yl)-1,2,3,4,4a,5-hexahydrobenzo[b]pyrazino[1,2-d][1,4]oxazin-8-yl)amino)piperidine-2,6-dione], the IC50 was determined as 0.0251 µM with T-47D cells and 2.28 µM in the assay with MCF-7 cells. For the same compound, the results for the “Degradation rate of ERα in T-47D cells (%)” value on ERα [1] (1nM) and on ERα [1] (10nM) were 0% and 1%, respectively. In addition, the “Degradation rate of ERα in MCF-7 cells (%)” value on ERα [2] (1nM) is listed as 7%; on ERα [2] (10nM), -11%.

In the case of `O=C1CC[C@H](NC(=O)c2ccc3c(c2F)OCC32CCN(C3CC4(CCN(c5ccc([C@@H]6c7ccc(O)cc7CC[C@@H]6c6ccccc6)cc5)CC4)C3)CC2)C(=O)N1` [ER-P-37, N-((S)-2,6-dioxopiperidin-3-yl)-7-fluoro-1'-(7-(4-((1R,2S)-6-hydroxy-2-phenyl-1,2,3,4-tetrahydronaphthalen-1-yl)phenyl)-7-azaspiro[3.5]nonan-2-yl)-2H-spiro[benzofuran-3,4'-piperidine]-6-carboxamide], the IC50 in the assay on T-47D cells came to 0.0189 µM; with MCF-7 cells it was 1.41 µM. Also, the “Degradation rate of ERα in T-47D cells (%)” value on ERα [1] (1nM) came to 6%; at ERα [1] (10nM), 4%. Moreover, the “Degradation rate of ERα in MCF-7 cells (%)” value on ERα [2] (1nM) was -6%; at ERα [2] (10nM), -9%.

On to `O=C1CC[C@H](NC(=O)c2ccc3c(c2F)OCC32CCN(C3CCC4(CC3)CN(c3ccc([C@@H]5c6ccc(O)cc6CC[C@@H]5c5ccccc5)cc3)C4)CC2)C(=O)N1` [ER-P-38, N-((S)-2,6-dioxopiperidin-3-yl)-7-fluoro-1'-(2-(4-((1R,2S)-6-hydroxy-2-phenyl-1,2,3,4-tetrahydronaphthalen-1-yl)phenyl)-2-azaspiro[3.5]nonan-7-yl)-2H-spiro[benzofuran-3,4'-piperidine]-6-carboxamide], for which the IC50 in the assay with T-47D cells was found to be 0.0186 µM; in the assay with MCF-7 cells, 0.505 µM. The “Degradation rate of ERα in T-47D cells (%)” value at ERα [1] (1nM) is on record as 1%; at ERα [1] (10nM) it was 3%. Moreover, the “Degradation rate of ERα in MCF-7 cells (%)” value was 12% on ERα [2] (1nM) and -14% at ERα [2] (10nM).

For `O=C1CC[C@H](NC(=O)c2ccc3c(c2F)OCC32CCN(C3CCC4(CC3)CCN(c3ccc([C@@H]5c6ccc(O)cc6CC[C@@H]5c5ccccc5)cc3)CC4)CC2)C(=O)N1` [ER-P-39, N-((S)-2,6-dioxopiperidin-3-yl)-7-fluoro-1'-(3-(4-((1R,2S)-6-hydroxy-2-phenyl-1,2,3,4-tetrahydronaphthalen-1-yl)phenyl)-3-azaspiro[5.5]undecan-9-yl)-2H-spiro[benzofuran-3,4'-piperidine]-6-carboxamide], the IC50 in the assay on T-47D cells was 0.0142 µM; with MCF-7 cells, 0.526 µM. For the same compound, the “Degradation rate of ERα in T-47D cells (%)” value on ERα [1] (1nM) is reported as -7%; on ERα [1] (10nM) it was -3%. The entries for the “Degradation rate of ERα in MCF-7 cells (%)” value on ERα [2] (1nM) and on ERα [2] (10nM) were -13% and -16%, respectively.

Take `CN(C(=O)CN1CCC2(CC1)COc1c2ccc(F)c1C(=O)N[C@H]1CCC(=O)NC1=O)C1CCC2(CC1)CN(c1ccc([C@@H]3c4ccc(O)cc4CC[C@@H]3c3ccccc3)cc1)C2` [ER-P-40, N-((S)-2,6-dioxopiperidin-3-yl)-6-fluoro-1'-(2-((2-(4-((1R,2S)-6-hydroxy-2-phenyl-1,2,3,4-tetrahydronaphthalen-1-yl)phenyl)-2-azaspiro[3.5]nonan-7-yl)(methyl)amino)-2-oxoethyl)-2H-spiro[benzofuran-3,4'-piperidine]-7-carboxamide]: the IC50 was 0.0284 µM in the assay with T-47D cells and 6.21 µM with MCF-7 cells. Moreover, the “Degradation rate of ERα in T-47D cells (%)” value was 22% on ERα [1] (1nM) and 34% at ERα [1] (10nM). Further, the results for the “Degradation rate of ERα in MCF-7 cells (%)” value on ERα [2] (1nM) and on ERα [2] (10nM) were -10% and -53%, respectively.

Consider `O=C1CCC(Nc2ccc3c(c2)OCC2(CCN(C[C@H]4CC[C@@H](OC5CCN(c6ccc([C@@H]7c8ccc(O)cc8CC[C@@H]7c7ccccc7)cc6)CC5)CC4)CC2)C3)C(=O)N1` (stereo partly drawn) [ER-P-41], for which the IC50 in the assay with T-47D cells worked out at 0.0373 µM; in the assay with MCF-7 cells, 0.377 µM. Besides, the “Degradation rate of ERα in T-47D cells (%)” value came out at 17% at ERα [1] (1nM) and 21% on ERα [1] (10nM). Besides, the “Degradation rate of ERα in MCF-7 cells (%)” value on ERα [2] (1nM) came to 13%; on ERα [2] (10nM) it was 15%.

Take `O=C1CC[C@H](NC(=O)c2ccc3c(c2F)OCC32CCN(CC3CCN(c4ccc([C@@H]5c6ccc(O)cc6CC[C@@H]5c5ccccc5)cc4)CC3)CC2)C(=O)N1` [ER-P-42, N-((S)-2,6-dioxopiperidin-3-yl)-7-fluoro-1'-((1-(4-((1R,2S)-6-hydroxy-2-phenyl-1,2,3,4-tetrahydronaphthalen-1-yl)phenyl)piperidin-4-yl)methyl)-2H-spiro[benzofuran-3,4'-piperidine]-6-carboxamide]: the IC50 in the assay on T-47D cells worked out at 0.0104 µM; in the assay on MCF-7 cells it was 4.5 µM. Further, the results for the “Degradation rate of ERα in T-47D cells (%)” value on ERα [1] (1nM) and on ERα [1] (10nM) were -27% and -28%, respectively. The “Degradation rate of ERα in MCF-7 cells (%)” value is on record as -20% on ERα [2] (1nM) and -3% on ERα [2] (10nM).

A word on the IC50: it is the midpoint of a concentration-inhibition curve.
